# Source: US20090258071A1, “COMPOSITIONS AND METHODS FOR PH TARGETED DRUG DELIVERY” (Labopharm, Inc., priority 2006, published 2009)
# Test: Dissolution of SN-38 in phosphate buffer pH 6.8
# Format: physicochemical
# Conditions: FIG. 4
# Protocol: The kinetics of drug release can be determined by measuring the amount of drug released into phosphate buffer pH 6.8 at 37° C. via conventional high pressure liquid chromatography (HPLC).
# The experiment was repeated in a solution at a higher pH, specifically pH 6.8. Briefly, the dissolution of SN-38 was measured either as SN-38 alone or from SN-38 containing micelles prepared as described in Example 2. The freeze dried cake produced in Example 2 was added to phosphate buffer pH 6.8 and the drug concentration was measured under the same conditions as the experiment using aqueous HCl at pH 1.2.
compound,measurement,value
"CCc1c2c(nc3ccc(O)cc13)-c1cc3c(c(=O)n1C2)COC(=O)[C@]3(O)CC [SN-38, 7-ethyl-10-hydroxy-camptothecin]",dissolution behaviour,rapidly precipitates from solution
